Experimental data taken from US8513238B2 (Hoffmann-La Roche Inc., priority 2010, dated 2013).
Counter-ions that a name gives are not always drawn.

Molecular target: T1, human V1a receptor (Homo sapiens, UniProt P37288)
T1 construct: expressed in transfected cells; host or cells: HEK293 cells, transiently transfected; membranes prepared
Assay: human V1a receptor binding (3H-Vasopressin SPA, HEK293 membranes)
Conditions: membranes of HEK293 cells transiently transfected with human V1a receptor, Ki by Cheng-Prussoff, read-out: pKi (hV1a) (converted)
Protocol: The human V1a receptor was cloned by RT-PCR from total human liver RNA. The coding sequence was subcloned in an expression vector after sequencing to confirm the identity of the amplified sequence. […] Cell membranes were prepared from HEK293 cells transiently transfected with the expression vector and grown in 20 liter fermenters with the following protocol.
50 g of cells are resuspended in 30 ml freshly prepared ice cold Lysis buffer (50 mM HEPES, 1 mM EDTA, 10 mM magnesium dichloride adjusted to pH=7.4+complete cocktail of protease inhibitor (Roche Diagnostics)). Homogenized with Polytron for 1 min and sonicated on ice for 2×2 minutes at 80% intensity (Vibracell sonicator). The preparation is centrifuged 20 min at 500 g at 4° C., the pellet is discarded and the supernatant centrifuged 1 hour at 43,000 g at 4° C. (19,000 rpm). The pellet is resuspended in 12.5 ml Lysis buffer+12.5 ml sucrose 20% and homogenized using a Polytron for 1-2 min. The protein concentration is determined by the Bradford method and aliquots are stored at −80° C. until use. For binding studies 60 mg Yttrium silicate SPA beads (Amersham®) are mixed with an aliquot of membrane in binding buffer (50 mM Tris, 120 mM sodium chloride, 5 mM potassium chloride, 2 mM calcium dichloride, 10 mM magnesium dichloride) for 15 minutes with mixing. 50 μl of bead/membrane mixture is then added to each well of a 96 well plate, followed by 50 μl of 4 nM 3H-Vasopressin (American Radiolabeled Chemicals). For total binding measurement 100 μl of binding buffer are added to the respective wells, for non-specific binding 100 μl of 8.4 mM cold vasopressin and for compound testing 100 μl of a serial dilution of each compound in 2% dimethyl sulfoxide. The plate is incubated 1 h at room temperature, centrifuged 1 min at 1000 g and counted on a Packard Top-Count. Non-specific binding counts are subtracted from each well and data is normalized to the maximum specific binding set at 100%. To calculate an IC50 the curve is fitted using a non-linear regression model (XLfit) and the Ki is calculated using the Cheng-Prussoff equation.

T1 sequence (P37288 whole entry): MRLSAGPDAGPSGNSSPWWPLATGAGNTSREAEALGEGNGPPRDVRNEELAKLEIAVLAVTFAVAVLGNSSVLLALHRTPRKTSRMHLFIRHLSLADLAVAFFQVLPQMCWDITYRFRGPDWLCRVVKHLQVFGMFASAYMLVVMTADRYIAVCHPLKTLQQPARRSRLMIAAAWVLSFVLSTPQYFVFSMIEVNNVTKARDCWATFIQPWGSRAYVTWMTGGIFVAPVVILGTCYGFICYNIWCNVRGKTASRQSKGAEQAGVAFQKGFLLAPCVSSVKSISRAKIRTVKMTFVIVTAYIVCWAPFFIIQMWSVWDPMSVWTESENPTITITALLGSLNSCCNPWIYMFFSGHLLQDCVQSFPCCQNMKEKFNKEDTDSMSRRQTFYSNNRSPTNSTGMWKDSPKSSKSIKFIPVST

| SMILES | Ki |
| --- | --- |
| COCCN1Cc2cc(Cl)ccc2-n2c(nnc2[C@H]2CC[C@H](c3cc(C)on3)CC2)C1 [Example 29, trans-8-Chloro-5-(2-methoxy-ethyl)-1-[4-(5-methyl-isoxazol-3-yl)-cyclohexyl]-5,6-dihydro-4H-2,3,5,10b-tetraaza-benzo[e]azulene] | 1.58 nM |
| CNCCN1Cc2cc(Cl)ccc2-n2c(nnc2[C@H]2CC[C@H](c3cc(C)on3)CC2)C1 [Example 30, trans-(2-{8-Chloro-1-[4-(5-methyl-isoxazol-3-yl)-cyclohexyl]-4H,6H-2,3,5,10b-tetraaza-benzo[e]azulen-5-yl}-ethyl)-methyl-amine] | 25.1 nM |
| CC(=O)N1Cc2cc(Cl)ccc2-n2c(nnc2[C@H]2CC[C@H](c3cc(C)on3)CC2)C1 [Example 31, trans-1-{8-Chloro-1-[4-(5-methyl-isoxazol-3-yl)-cyclohexyl]-4H,6H-2,3,5,10b-tetraaza-benzo[e]azulen-5-yl}-ethanone] | 1.74 nM |
| Cc1cc([C@H]2CC[C@H](c3nnc4n3-c3ccc(Cl)cc3CN(C(=O)CO)C4)CC2)no1 [Example 32, trans-1-{8-Chloro-1-[4-(5-methyl-isoxazol-3-yl)-cyclohexyl]-4H,6H-2,3,5,10b-tetraaza-benzo[e]azulen-5-yl}-2-hydroxy-ethanone] | 2.88 nM |
| Cc1cc([C@H]2CC[C@H](c3nnc4n3-c3ccc(Cl)cc3CN(C(=O)CN(C)C)C4)CC2)no1 [Example 33, trans-1-{8-Chloro-1-[4-(5-methyl-isoxazol-3-yl)-cyclohexyl]-4H,6H-2,3,5,10b-tetraaza-benzo[e]azulen-5-yl}-2-dimethylamino-ethanone hydroformate] | 2 nM |
| Cc1cc([C@H]2CC[C@H](c3nnc4n3-c3ccc(Cl)cc3CN(S(C)(=O)=O)C4)CC2)no1 [Example 34, trans-8-Chloro-5-methanesulfonyl-1-[4-(5-methyl-isoxazol-3-yl)-cyclohexyl]-5,6-dihydro-4H-2,3,5,10b-tetraaza-benzo[e]azulene] | 0.275 nM |
| Cc1cc([C@H]2CC[C@H](c3nnc4n3-c3ccc(Cl)cc3CN(S(=O)(=O)N(C)C)C4)CC2)no1 [Example 35, trans-8-Chloro-1-[4-(5-methyl-isoxazol-3-yl)-cyclohexyl]-4H,6H-2,3,5,10b-tetraaza-benzo[e]azulene-5-sulfonic acid dimethylamide] | 0.501 nM |
| Cc1cc([C@H]2CC[C@H](c3nnc4n3-c3ccc(F)cc3CN(C(=O)OC(C)(C)C)C4)CC2)no1 [Example 36, trans-8-Fluoro-1-[4-(5-methyl-isoxazol-3-yl)-cyclohexyl]-4H,6H-2,3,5,10b-tetraaza-benzo[e]azulene-5-carboxylic acid tert-butyl ester] | 0.776 nM |
| Cc1cc([C@H]2CC[C@H](c3nnc4n3-c3ccc(F)cc3CNC4)CC2)no1 [Example 37, trans-8-Fluoro-1-[4-(5-methyl-isoxazol-3-yl)-cyclohexyl]-5,6-dihydro-4H-2,3,5,10b-tetraaza-benzo[e]azulene] | 91.2 nM |
| Cc1cc([C@H]2CC[C@H](c3nnc4n3-c3ccc(F)cc3CN(C)C4)CC2)no1 [Example 38, trans-8-Fluoro-1-[4-(5-methyl-isoxazol-3-yl)-cyclohexyl]-5-methyl-5,6-dihydro-4H-2,3,5,10b-tetraaza-benzo[e]azulene] | 18.6 nM |
| Cc1onc([C@H]2CC[C@H](c3nnc4n3-c3ccc(Cl)cc3CN(C(=O)OC(C)(C)C)C4)CC2)c1C [Example 39, trans-8-Chloro-1-[4-(4,5-dimethyl-isoxazol-3-yl)-cyclohexyl]-4H,6H-2,3,5,10b-tetraaza-benzo[e]azulene-5-carboxylic acid tert-butyl ester] | 0.2 nM |
| Cc1onc([C@H]2CC[C@H](c3nnc4n3-c3ccc(Cl)cc3CNC4)CC2)c1C [Example 40, trans-8-Chloro-1-[4-(4,5-dimethyl-isoxazol-3-yl)-cyclohexyl]-5,6-dihydro-4H-2,3,5,10b-tetraaza-benzo[e]azulene] | 4.79 nM |
| Cc1onc([C@H]2CC[C@H](c3nnc4n3-c3ccc(Cl)cc3CN(C)C4)CC2)c1C [Example 41, trans-8-Chloro-1-[4-(4,5-dimethyl-isoxazol-3-yl)-cyclohexyl]-5-methyl-5,6-dihydro-4H-2,3,5,10b-tetraaza-benzo[e]azulene] | 0.501 nM |
| Cc1onc([C@H]2CC[C@H](c3nnc4n3-c3ccc(Cl)cc3CN(C(=O)OC(C)(C)C)C4)CC2)c1Cl [Example 42, trans-8-Chloro-1-[4-(4-chloro-5-methyl-isoxazol-3-yl)-cyclohexyl]-4H,6H-2,3,5,10b-tetraaza-benzo[e]azulene-5-carboxylic acid tert-butyl ester] | 0.398 nM |
| Cc1onc([C@H]2CC[C@H](c3nnc4n3-c3ccc(Cl)cc3CNC4)CC2)c1Cl [Example 43, trans-8-Chloro-1-[4-(4-chloro-5-methyl-isoxazol-3-yl)-cyclohexyl]-5,6-dihydro-4H-2,3,5,10b-tetraaza-benzo[e]azulene] | 5.89 nM |
| Cc1onc([C@H]2CC[C@H](c3nnc4n3-c3ccc(Cl)cc3CN(C)C4)CC2)c1Cl [Example 44, trans-8-Chloro-1-[4-(4-chloro-5-methyl-isoxazol-3-yl)-cyclohexyl]-5-methyl-5,6-dihydro-4H-2,3,5,10b-tetraaza-benzo[e]azulene] | 0.603 nM |
| Cc1onc([C@H]2CC[C@H](c3nnc4n3-c3ccc(Cl)cc3CN(C(=O)OC(C)(C)C)C4)CC2)c1F [Example 45, trans-8-Chloro-1-[4-(4-fluoro-5-methyl-isoxazol-3-yl)-cyclohexyl]-4H,6H-2,3,5,10b-tetraaza-benzo[e]azulene-5-carboxylic acid tert-butyl ester] | 0.724 nM |
| Cc1onc([C@H]2CC[C@H](c3nnc4n3-c3ccc(Cl)cc3CNC4)CC2)c1F [Example 46, trans-8-Chloro-1-[4-(4-fluoro-5-methyl-isoxazol-3-yl)-cyclohexyl]-5,6-dihydro-4H-2,3,5,10b-tetraaza-benzo[e]azulene] | 8.51 nM |
| Cc1onc([C@H]2CC[C@H](c3nnc4n3-c3ccc(Cl)cc3CN(C)C4)CC2)c1F [Example 47, trans-8-Chloro-1-[4-(4-fluoro-5-methyl-isoxazol-3-yl)-cyclohexyl]-5-methyl-5,6-dihydro-4H-2,3,5,10b-tetraaza-benzo[e]azulene] | 0.575 nM |
| CCc1cc([C@H]2CC[C@@H](c3nnc4n3-c3ccc(Cl)cc3CN(C(=O)OC(C)(C)C)C4)CC2)no1 [Example 48, cis-8-Chloro-1-[4-(5-ethyl-isoxazol-3-yl)-cyclohexyl]-4H,6H-2,3,5,10b-tetraaza-benzo[e]azulene-5-carboxylic acid tert-butyl ester] | 8.32 nM |
| CCc1cc([C@H]2CC[C@H](c3nnc4n3-c3ccc(Cl)cc3CN(C(=O)OC(C)(C)C)C4)CC2)no1 [Example 49, trans-8-Chloro-1-[4-(5-ethyl-isoxazol-3-yl)-cyclohexyl]-4H,6H-2,3,5,10b-tetraaza-benzo[e]azulene-5-carboxylic acid tert-butyl ester] | 4.07 nM |
| CCc1cc([C@H]2CC[C@@H](c3nnc4n3-c3ccc(Cl)cc3CNC4)CC2)no1 [Example 50, cis-8-Chloro-1-[4-(5-ethyl-isoxazol-3-yl)-cyclohexyl]-5,6-dihydro-4H-2,3,5,10b-tetraaza-benzo[e]azulene hydrochloride] | 182 nM |
| CCc1cc([C@H]2CC[C@@H](c3nnc4n3-c3ccc(Cl)cc3CN(C)C4)CC2)no1 [Example 51, cis-8-Chloro-1-[4-(5-ethyl-isoxazol-3-yl)-cyclohexyl]-5-methyl-5,6-dihydro-4H-2,3,5,10b-tetraaza-benzo[e]azulene] | 15.5 nM |
| CCc1cc([C@H]2CC[C@H](c3nnc4n3-c3ccc(Cl)cc3CNC4)CC2)no1 [Example 52, trans-8-Chloro-1-[4-(5-ethyl-isoxazol-3-yl)-cyclohexyl]-5,6-dihydro-4H-2,3,5,10b-tetraaza-benzo[e]azulene hydrochloride] | 6.31 nM |
| CCc1cc([C@H]2CC[C@H](c3nnc4n3-c3ccc(Cl)cc3CN(C)C4)CC2)no1 [Example 53, trans-8-Chloro-1-[4-(5-ethyl-isoxazol-3-yl)-cyclohexyl]-5-methyl-5,6-dihydro-4H-2,3,5,10b-tetraaza-benzo[e]azulene] | 1.2 nM |
| CC(C)(C)OC(=O)N1Cc2cc(Cl)ccc2-n2c(nnc2[C@H]2CC[C@H](c3noc4c3CCCC4)CC2)C1 [Example 54, trans-8-Chloro-1-[4-(4,5,6,7-tetrahydro-benzo[d]isoxazol-3-yl)-cyclohexyl]-4H,6H-2,3,5,10b-tetraaza-benzo[e]azulene-5-carboxylic acid tert-butyl ester] | 9.55 nM |
